Laboratory results from the kinase profiling compilation of Christmann-Franck et al. (2016).

Key:
Experiment in all cases: KINOMEscan competition binding
Conditions in all cases: compound 10.0 µM
CAMK2A (human) = CAMK2A (human) (UniProt Q9UQM7)
DYRK1B (human) = DYRK1B (human) (UniProt Q9Y463)
CDK2 (human) = CDK2 (human) (UniProt P24941)
PIK3CA (human) = PIK3CA (human) (UniProt P42336)
SGK1 (human) = SGK1 (human) (UniProt O00141)
PIK3CG (human) = PIK3CG (human) (UniProt P48736)
FLT3 (human) = FLT3 (human) (UniProt P36888)
TEK (human) = TEK (human) (UniProt Q02763)
CHEK1 (human) = CHEK1 (human) (UniProt O14757)
PIM3 (human) = PIM3 (human) (UniProt Q86V86)
SRPK3 (human) = SRPK3 (human) (UniProt Q9UPE1)
STK25 (human) = STK25 (human) (UniProt O00506)
AXL (human) = AXL (human) (UniProt P30530)
LRRK2 (human) = LRRK2 (human) (UniProt Q5S007)
GSK3B (human) = GSK3B (human) (UniProt P49841)
MAP3K5 (human) = MAP3K5 (human) (UniProt Q99683)
NTRK1 (human) = NTRK1 (human) (UniProt P04629)
PTK2 (human) = PTK2 (human) (UniProt Q05397)
KIT (human) = KIT (human) (UniProt P10721)
ULK2 (human) = ULK2 (human) (UniProt Q8IYT8)
STK16 (human) = STK16 (human) (UniProt O75716)
GAK (human) = GAK (human) (UniProt O14976)
BMPR2 (human) = BMPR2 (human) (UniProt Q13873)
WNK1 (human) = WNK1 (human) (UniProt Q9H4A3)
[1] = test system: KIT (human), P10721 [V559D/T670I]
MATK (human) = MATK (human) (UniProt P42679)
HCK (human) = HCK (human) (UniProt P08631)
KDR (human) = KDR (human) (UniProt P35968)
CHUK (human) = CHUK (human) (UniProt O15111)
MAP2K2 (human) = MAP2K2 (human) (UniProt P36507)
BRAF (human) = BRAF (human) (UniProt P15056)
ACVR2B (human) = ACVR2B (human) (UniProt Q13705)
CASK (human) = CASK (human) (UniProt O14936)
ADCK3 (human) = ADCK3 (human) (UniProt Q8NI60)
FGFR2 (human) = FGFR2 (human) (UniProt P21802)
FGFR3 (human) = FGFR3 (human) (UniProt P22607)
PIK3C2B (human) = PIK3C2B (human) (UniProt O00750)
CDK14 (human) = CDK14 (human) (UniProt O94921)
PIM2 (human) = PIM2 (human) (UniProt Q9P1W9)
PAK1 (human) = PAK1 (human) (UniProt Q13153)
MAPKAPK2 (human) = MAPKAPK2 (human) (UniProt P49137)

Sequence of MAP3K5 (human) (Q99683 whole entry, looked up): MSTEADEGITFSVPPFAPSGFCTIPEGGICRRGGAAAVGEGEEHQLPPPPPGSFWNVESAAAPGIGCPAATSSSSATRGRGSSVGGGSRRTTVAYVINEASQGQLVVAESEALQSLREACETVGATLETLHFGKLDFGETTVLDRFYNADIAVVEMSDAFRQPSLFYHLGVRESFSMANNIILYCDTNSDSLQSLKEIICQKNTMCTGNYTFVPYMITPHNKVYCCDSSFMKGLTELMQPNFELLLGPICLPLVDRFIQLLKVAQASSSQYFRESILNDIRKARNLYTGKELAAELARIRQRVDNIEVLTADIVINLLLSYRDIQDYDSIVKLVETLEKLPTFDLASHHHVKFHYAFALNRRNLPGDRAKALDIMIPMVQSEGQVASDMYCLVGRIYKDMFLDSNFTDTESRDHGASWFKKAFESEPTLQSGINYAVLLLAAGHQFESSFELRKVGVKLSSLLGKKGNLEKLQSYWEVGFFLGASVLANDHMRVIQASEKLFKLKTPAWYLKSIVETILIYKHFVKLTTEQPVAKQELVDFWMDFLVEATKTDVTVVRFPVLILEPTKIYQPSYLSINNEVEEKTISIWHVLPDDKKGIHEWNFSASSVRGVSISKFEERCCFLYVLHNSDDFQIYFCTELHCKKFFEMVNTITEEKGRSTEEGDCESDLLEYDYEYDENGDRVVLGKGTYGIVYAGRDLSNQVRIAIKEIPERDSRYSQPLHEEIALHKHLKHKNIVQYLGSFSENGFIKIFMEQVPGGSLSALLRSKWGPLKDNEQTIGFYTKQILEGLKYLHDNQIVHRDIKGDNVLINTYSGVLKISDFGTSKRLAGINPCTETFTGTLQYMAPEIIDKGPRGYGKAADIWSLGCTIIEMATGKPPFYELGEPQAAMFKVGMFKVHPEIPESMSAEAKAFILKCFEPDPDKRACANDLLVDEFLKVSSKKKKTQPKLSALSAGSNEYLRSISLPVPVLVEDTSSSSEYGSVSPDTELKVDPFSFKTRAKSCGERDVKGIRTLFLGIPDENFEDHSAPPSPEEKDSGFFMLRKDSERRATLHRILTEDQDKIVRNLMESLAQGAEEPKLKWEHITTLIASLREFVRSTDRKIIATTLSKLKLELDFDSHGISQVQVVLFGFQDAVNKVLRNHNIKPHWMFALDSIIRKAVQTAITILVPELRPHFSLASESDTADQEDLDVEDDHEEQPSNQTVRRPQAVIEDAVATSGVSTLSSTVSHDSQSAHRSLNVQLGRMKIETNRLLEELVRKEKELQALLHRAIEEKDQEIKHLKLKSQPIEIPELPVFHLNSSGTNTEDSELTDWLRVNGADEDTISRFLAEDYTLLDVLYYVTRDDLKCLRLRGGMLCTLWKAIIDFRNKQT
Sequence of SRPK3 (human) (Q9UPE1 whole entry, looked up): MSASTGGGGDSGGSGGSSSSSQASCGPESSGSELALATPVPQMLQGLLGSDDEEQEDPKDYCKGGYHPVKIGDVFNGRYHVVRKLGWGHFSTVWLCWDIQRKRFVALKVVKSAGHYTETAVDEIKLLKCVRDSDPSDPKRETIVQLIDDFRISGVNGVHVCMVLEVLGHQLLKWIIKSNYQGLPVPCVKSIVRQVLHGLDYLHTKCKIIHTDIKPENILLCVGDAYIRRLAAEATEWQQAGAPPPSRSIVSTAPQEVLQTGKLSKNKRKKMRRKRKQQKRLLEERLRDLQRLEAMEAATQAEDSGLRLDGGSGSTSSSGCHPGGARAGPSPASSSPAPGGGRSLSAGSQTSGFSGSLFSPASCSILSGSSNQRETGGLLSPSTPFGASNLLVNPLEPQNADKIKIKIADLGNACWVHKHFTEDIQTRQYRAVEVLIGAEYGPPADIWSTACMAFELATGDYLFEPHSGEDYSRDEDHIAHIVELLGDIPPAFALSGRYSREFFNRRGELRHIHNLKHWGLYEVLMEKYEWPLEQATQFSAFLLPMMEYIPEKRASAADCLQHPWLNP
Sequence of MATK (human) (P42679 whole entry, looked up): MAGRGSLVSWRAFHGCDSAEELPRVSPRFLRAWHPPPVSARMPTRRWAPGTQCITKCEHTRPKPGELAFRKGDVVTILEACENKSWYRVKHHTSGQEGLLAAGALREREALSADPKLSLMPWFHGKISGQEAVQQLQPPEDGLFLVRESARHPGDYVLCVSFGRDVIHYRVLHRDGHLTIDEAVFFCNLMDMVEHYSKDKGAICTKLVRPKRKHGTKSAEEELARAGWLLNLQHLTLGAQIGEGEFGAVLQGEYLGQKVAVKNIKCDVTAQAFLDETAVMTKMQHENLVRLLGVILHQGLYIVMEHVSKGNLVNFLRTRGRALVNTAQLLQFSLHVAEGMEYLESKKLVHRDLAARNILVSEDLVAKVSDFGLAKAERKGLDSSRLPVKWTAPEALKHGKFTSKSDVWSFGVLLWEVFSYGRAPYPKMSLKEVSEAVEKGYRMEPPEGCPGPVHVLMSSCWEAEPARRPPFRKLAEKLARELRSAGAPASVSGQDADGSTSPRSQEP
Sequence of DYRK1B (human) (Q9Y463 whole entry, looked up): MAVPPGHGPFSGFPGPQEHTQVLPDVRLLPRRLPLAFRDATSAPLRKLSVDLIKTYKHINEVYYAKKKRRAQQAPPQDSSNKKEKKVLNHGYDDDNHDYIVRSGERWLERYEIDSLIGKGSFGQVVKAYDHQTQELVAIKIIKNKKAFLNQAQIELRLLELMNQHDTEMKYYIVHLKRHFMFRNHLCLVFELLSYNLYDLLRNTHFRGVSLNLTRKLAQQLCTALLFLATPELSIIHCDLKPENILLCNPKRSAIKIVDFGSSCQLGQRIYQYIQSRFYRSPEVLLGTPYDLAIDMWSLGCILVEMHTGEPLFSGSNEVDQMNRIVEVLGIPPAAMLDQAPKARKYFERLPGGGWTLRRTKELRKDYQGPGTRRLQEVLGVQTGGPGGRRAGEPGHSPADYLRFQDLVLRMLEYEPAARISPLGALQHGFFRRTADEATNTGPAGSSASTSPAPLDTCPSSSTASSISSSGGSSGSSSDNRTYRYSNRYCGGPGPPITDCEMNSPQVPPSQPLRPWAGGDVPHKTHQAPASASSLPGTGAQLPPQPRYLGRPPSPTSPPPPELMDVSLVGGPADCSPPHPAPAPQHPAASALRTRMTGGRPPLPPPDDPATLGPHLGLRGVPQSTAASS
Sequence of SGK1 (human) (O00141 whole entry, looked up): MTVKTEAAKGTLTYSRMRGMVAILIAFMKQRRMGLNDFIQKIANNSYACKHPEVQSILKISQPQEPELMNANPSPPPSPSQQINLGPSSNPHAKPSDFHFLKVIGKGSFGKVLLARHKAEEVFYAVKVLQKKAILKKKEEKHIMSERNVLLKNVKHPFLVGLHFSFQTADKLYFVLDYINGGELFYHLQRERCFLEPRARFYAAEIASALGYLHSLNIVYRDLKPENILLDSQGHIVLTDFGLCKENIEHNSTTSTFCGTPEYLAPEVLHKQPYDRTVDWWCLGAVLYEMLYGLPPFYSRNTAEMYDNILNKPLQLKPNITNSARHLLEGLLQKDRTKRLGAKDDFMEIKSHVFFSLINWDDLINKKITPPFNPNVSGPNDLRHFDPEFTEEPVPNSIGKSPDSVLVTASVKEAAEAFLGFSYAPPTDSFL
Sequence of ULK2 (human) (Q8IYT8 whole entry, looked up): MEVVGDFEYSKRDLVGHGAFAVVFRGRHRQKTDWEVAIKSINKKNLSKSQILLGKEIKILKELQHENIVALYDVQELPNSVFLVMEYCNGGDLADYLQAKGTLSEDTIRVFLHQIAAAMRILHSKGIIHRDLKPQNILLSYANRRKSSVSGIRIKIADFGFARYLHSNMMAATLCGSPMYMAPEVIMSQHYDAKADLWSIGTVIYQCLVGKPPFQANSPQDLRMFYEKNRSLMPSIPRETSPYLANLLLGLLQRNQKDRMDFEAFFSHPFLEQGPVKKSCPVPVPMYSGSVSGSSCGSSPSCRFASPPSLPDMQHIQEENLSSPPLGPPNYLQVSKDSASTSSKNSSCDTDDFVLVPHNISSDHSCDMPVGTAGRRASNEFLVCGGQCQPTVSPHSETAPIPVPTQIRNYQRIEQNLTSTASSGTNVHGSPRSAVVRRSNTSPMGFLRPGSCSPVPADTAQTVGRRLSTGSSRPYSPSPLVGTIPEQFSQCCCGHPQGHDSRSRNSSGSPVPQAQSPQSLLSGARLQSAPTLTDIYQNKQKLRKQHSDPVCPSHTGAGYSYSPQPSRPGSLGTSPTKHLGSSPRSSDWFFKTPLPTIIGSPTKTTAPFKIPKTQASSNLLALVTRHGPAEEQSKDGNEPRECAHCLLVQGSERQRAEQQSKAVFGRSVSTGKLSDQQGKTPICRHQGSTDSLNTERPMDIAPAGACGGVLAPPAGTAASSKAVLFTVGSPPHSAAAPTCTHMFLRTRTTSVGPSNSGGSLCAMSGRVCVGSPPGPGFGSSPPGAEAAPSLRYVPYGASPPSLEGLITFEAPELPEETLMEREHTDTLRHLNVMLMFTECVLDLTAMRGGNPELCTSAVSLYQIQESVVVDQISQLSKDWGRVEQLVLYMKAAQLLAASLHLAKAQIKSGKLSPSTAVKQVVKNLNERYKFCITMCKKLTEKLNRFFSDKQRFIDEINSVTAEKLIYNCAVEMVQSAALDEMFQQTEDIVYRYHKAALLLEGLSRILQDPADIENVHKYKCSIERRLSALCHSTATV
Sequence of CAMK2A (human) (Q9UQM7 whole entry, looked up): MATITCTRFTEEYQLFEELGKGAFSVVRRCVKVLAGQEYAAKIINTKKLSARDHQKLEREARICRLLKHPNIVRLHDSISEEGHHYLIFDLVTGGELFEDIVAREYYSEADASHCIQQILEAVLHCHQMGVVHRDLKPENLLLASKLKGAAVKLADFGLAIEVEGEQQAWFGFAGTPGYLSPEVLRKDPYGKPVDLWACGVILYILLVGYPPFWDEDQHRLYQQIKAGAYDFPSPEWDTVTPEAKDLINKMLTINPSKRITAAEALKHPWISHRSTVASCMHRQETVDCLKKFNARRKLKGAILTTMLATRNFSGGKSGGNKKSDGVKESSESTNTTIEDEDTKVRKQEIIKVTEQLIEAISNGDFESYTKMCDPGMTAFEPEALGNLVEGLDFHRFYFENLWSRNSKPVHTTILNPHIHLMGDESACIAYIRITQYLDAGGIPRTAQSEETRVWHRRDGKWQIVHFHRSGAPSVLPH

kinase still bound, per cent of control (CAMK2A (human)): 90% | kinase still bound, per cent of control (DYRK1B (human)): 96% | kinase still bound, per cent of control (CDK2 (human)): 64% | kinase still bound, per cent of control (PIK3CA (human)): 100% | kinase still bound, per cent of control (SGK1 (human)): 88% | kinase still bound, per cent of control (PIK3CG (human)): 98% | kinase still bound, per cent of control (FLT3 (human)): 0% | kinase still bound, per cent of control (TEK (human)): 25% | kinase still bound, per cent of control (CHEK1 (human)): 100% | kinase still bound, per cent of control (PIM3 (human)): 94% | kinase still bound, per cent of control (SRPK3 (human)): 100% | kinase still bound, per cent of control (STK25 (human)): 79% | kinase still bound, per cent of control (AXL (human)): 25% | kinase still bound, per cent of control (LRRK2 (human)): 83% | kinase still bound, per cent of control (GSK3B (human)): 99% | kinase still bound, per cent of control (MAP3K5 (human)): 90% | kinase still bound, per cent of control (NTRK1 (human)): 41% | kinase still bound, per cent of control (PTK2 (human)): 94% | kinase still bound, per cent of control (KIT (human)): 0.05% | kinase still bound, per cent of control (ULK2 (human)): 82% | kinase still bound, per cent of control (STK16 (human)): 100% | kinase still bound, per cent of control (GAK (human)): 90% | kinase still bound, per cent of control (BMPR2 (human)): 81% | kinase still bound, per cent of control (WNK1 (human)): 100% | kinase still bound, per cent of control [1]: 0.15% | kinase still bound, per cent of control (MATK (human)): 100% | kinase still bound, per cent of control (HCK (human)): 32% | kinase still bound, per cent of control (KDR (human)): 0% | kinase still bound, per cent of control (CHUK (human)): 51% | kinase still bound, per cent of control (MAP2K2 (human)): 60% | kinase still bound, per cent of control (BRAF (human)): 3.8% | kinase still bound, per cent of control (ACVR2B (human)): 100% | kinase still bound, per cent of control (CASK (human)): 20% | kinase still bound, per cent of control (ADCK3 (human)): 100% | kinase still bound, per cent of control (FGFR2 (human)): 51% | kinase still bound, per cent of control (FGFR3 (human)): 80% | kinase still bound, per cent of control (PIK3C2B (human)): 80% | kinase still bound, per cent of control (CDK14 (human)): 23% | kinase still bound, per cent of control (PIM2 (human)): 100% | kinase still bound, per cent of control (PAK1 (human)): 86% | kinase still bound, per cent of control (MAPKAPK2 (human)): 100%
SMILES: O=C(Nc1ccc(Oc2ncnc3[nH]ncc23)cc1)Nc1ccc(Cl)c(C(F)(F)F)c1
